# Measurements: patent US20010011075A1, “5'-SUBSTITUTED-RIBOFURANOSYL BENZIMIDAZOLES AS ANTIVIRAL AGENTS” (priority 1999, published 2001)
# Read-outs that look alike come from different tables or passages of the source.
# Tests used:
# HCMV [1] = test: HCMV plaque (focus) reduction assay in HFF cells; type: cell-based, HCMV (Towne strain); conditions: for IC50: HCMV plaque assay, HFF cells, averages from two or more experiments, read-out: 50% Inhibitory Concentration, Antiviral Activity (plaque)
# Experimental: (§1) A plaque purified isolate, Po, of the Towne strain of HCMV was used in all experiments and was a gift of Dr. Mark Stinski, University of Iowa. The KOS strain of HSV-1 was used and was provided by Dr. Sandra K. Weller, University of Connecticut. Stock preparations of HCMV and HSV-1 were prepared and titered as known to those of skill and the art and described in Turk, S. R. et al. (1987) Antimicrob. Agents Chemother. Vol. 31:544-550 and Shipman, C., Jr., et al. (1990) J. Virol. Methods Vol. 28:101-106, each incorporated herein by reference.
# (§2) HCMV plaque reduction experiments were performed with monolayer cultures of HFF cells by a procedure similar to that referenced above for titration of the viruses and described in Devivar, R. V. et al. (1994) J. Med. Chem. Vol. 37:2942-2949. Activity of compounds against HSV-1 was evaluated using an ELISA assay.
# The effect of compounds of the replication of HCMV was measured using a plaque (focus) reduction assay. For the former, HFF cells in 24-well culture dishes were infected with approximately 50 p.f.u. of HCMV per well using the procedures detailed above. Compounds dissolved in growth medium were added in four to six selected concentrations to duplicate wells following virus adsorption. Following incubation at 37° C. for 7 to 10 days, cell sheets were fixed, stained and microscopic plaques were enumerated as described above. Drug effects were calculated as a percentage of reduction in number of plaques in the presence of each drug concentration compared to the number observed in the absence of drug. DHPG (ganciclovir) was used as a positive control in all experiments.
# (§3) Dose-response relationships can be used to compare drug effects. These are constructed by linearly regressing the percent inhibition of parameters derived in the preceding sections against log drug concentrations. The 50 inhibitory (I50) concentrations were calculated from the regression lines using the methods described by Goldstein. See Goldstein, A., Biostatistics: An Introductory Text, MacMillan, New York, pp. 156-161 (1964), incorporated herein by reference.
# (§4) (2) A plaque assay was used to quantitate anti HCMV activity, an ELISA assay was used to quantitate activity against HSV-1. DHPG (ganciclovir) was used as a positive control for the HCMV assay.
# HSV-1 = HSV-1 ELISA assay; type: cell-based, HSV-1 (KOS strain); conditions: read-out: 50% Inhibitory Concentration, Antiviral Activity (ELISA)
# Experimental: as §1, §2
# ELISA techniques according to standard procedures were also used to determine activity against HSV-1. Drug effects were calculated as a percentage of the reduction in virus titers in the presence of each drug concentration compared to the titer obtained in the absence of drug. Ganciclovir was used as a positive control in all experiments.
# as §3, §4
# L1210 cells = test: Antiproliferative activity: growth of L1210 cells; type: cell-based, mouse; conditions: for IC50: concentration required to decrease final growth rate of L1210 cells to half of control rate, read-out: 50% Inhibitory Concentration, Antiproliferative Activity
# Experimental: Antiproliferative activity was evaluated by measuring the effect of the compounds on the growth of L1210 cells, a mouse leukemia cell line which is generally available and can be obtained from Cancer Chemotherapy Center, Japanese Foundation for Cancer Research. Antiproliferative activity was measured using conventional procedures and as described in Wotring, L. L. and Townsend, L. B., (1979) Cancer Res. Vol. 39:3018-3023 and Cory, A. H. et al. (1991) Cancer Comm. Vol. 3:207-212, each incorporated herein by reference.
# (8) The concentration required to decrease the final growth rate of L1210 cells to half of the control rate. All values are averages from two or more experiments.
# [2] = Inhibition of KB cell growth (crystal violet staining); type: cell-based, human; conditions: human, KB cells (human epidermal oral carcinoma line); inhibition of KB cell growth; read-out: 50% Inhibitory Concentration, Cytotoxicity (KB)
# Experimental: (§5) KB cells (available from the American Type Culture Collection (ATCC) 12301 Parklawn Drive, […], Md. 20852 (ATCC CCL 17)), an established human cell line derived from an epidermal oral carcinoma, were grown in minimal essential medium (MEM) (Sigma) with Hanks salts (MEM(H)) supplemented with 5% fetal calf serum. Human foreskin fibroblasts (HFF cells) (provided by the University of Michigan Hospital) and African green monkey kidney cells (BSC-1) (ATTC CCL 26) cells were grown in MEM with Earl salts (MEM(E)) supplemented with 10% fetal bovine serum. Cells were passaged according to conventional procedures and as described in Shipman, C., Jr. et al. (1976) Antimicrob. Agents Chemother. Vol. 9:120 and incorporated herein by reference. Briefly, cells were passaged at 1:2 to 1:10 dilutions according to conventional procedures by using 0.05% trypsin plus 0.02% EDTA in a HEPES buffered salt solution. HFF cells were passaged only at 1:2 dilutions.
# (§6) Two different methods were used to evaluate cytotoxicity of the compounds. First, cytotoxicity produced in stationary HFF cells was determined by microscopical examination of cells not affected by the virus used in the plaque assay. Second the effect of compounds on KB cells during two population doubling times was determined by crystal violet staining and spectrophotometric quantitation of dye eluted from stained cells. This method has been utilized for the analysis of ganciclovir and zidovudine (See Prichard, M. N. et al. Antiviral Res. (1991) Vol. 35:1060-1065).
# (§7) (3) Visual cytotoxicity was scored on HFF cells at the time of HCMV plaque enumeration. Inhibition of KB cell growth was determined as described in the experimental. 3L was used as a positive control for the KB cytotoxicity assay.
# [3] = Visual cytotoxicity in stationary HFF cells at time of plaque enumeration; type: cell-based, human; conditions: human, stationary human foreskin fibroblasts (HFF cells); visual cytotoxicity on HFF cells at time of HCMV plaque enumeration; read-out: 50% Inhibitory Concentration, Cytotoxicity (HFF)
# Experimental: as §5, §6, §7
# HCMV [4] = conditions: background statement; times more active than TCRB; cited from earlier work
# KB cells = test: Inhibition of KB cell growth (crystal violet staining); type: cell-based, human; conditions: for IC50: inhibition of KB cell growth, read-out: 50% Inhibitory Concentration, Cytotoxicity (KB)
# Experimental: as §5, §6, §7
# HFF cells = test: Visual cytotoxicity in stationary HFF cells at time of plaque enumeration; type: cell-based, human; conditions: visual cytotoxicity on HFF cells at time of HCMV plaque enumeration; read-out: 50% Inhibitory Concentration, Cytotoxicity (HFF)
# Experimental: as §5, §6, §7
# [5] = Human alphaherpesvirus 1, averages from two or more experiments
# [6] = averages from two or more experiments
SMILES,melting point [°C],"IC50 (HCMV [1]; Human betaherpesvirus 5, HFF) [µM]",IC50 (HSV-1; [5]) [µM],IC50 (L1210 cells; Mus musculus) [µM],IC50 at 2 population doubling times [2] [µM],IC50 [3] [µM],anti-HCMV activity (in words) (HCMV [1]; Table 1),IC50 (HCMV [1]) [µM],IC50 (HSV-1; [6]) [µM],activity relative to TCRB (HCMV [4]),IC50 (KB cells) [µM],IC50 (HFF cells) [µM],IC50 (L1210 cells) [µM],antiproliferative effect in L1210 cells (in words) (L1210 cells; statement in text on Table 2),cytotoxicity in growing KB cells (in words) (KB cells)
"CCCCCCOC[C@H]1O[C@@H](n2c(Cl)nc3cc(Cl)c(Cl)cc32)[C@H](OC(C)=O)[C@@H]1OC(C)=O [Compound 7d, 2,5,6-trichloro-1-(2′,3′-di-O-acetyl-5′-O-hexyl-β-D-ribofuranosyl)benzimidazole]",98 to 100,8,> 100,,60,32,decreased activity over the butyl compound (7c),,,,,,,,
"CCCCOC[C@H]1O[C@@H](n2c(Cl)nc3cc(Cl)c(Cl)cc32)[C@H](OC(C)=O)[C@@H]1OC(C)=O [Compound 7c, 2,5,6-trichloro-1-(2′,3′-di-O-acetyl-5′-O-butyl-β-D-ribofuranosyl)benzimidazole]",143 to 144,21,> 100,,> 100,66,,,,,,,,,
"C[C@H]1O[C@@H](n2c(Cl)nc3cc(Cl)c(Cl)cc32)[C@H](O)[C@@H]1O [Compound 2, 2,5,6-trichloro-1-(5′-deoxy-β-D-ribofuranosyl)benzimidazole, reference compound]",,,,,,,,0.36,> 100,about 10 times,150,77,,,
"O[C@@H]1[C@H](O)[C@@H](CF)O[C@H]1n1c(Cl)nc2cc(Cl)c(Cl)cc21 [Compound 13a, 2,5,6-trichloro-1-(5′-deoxy-5′-fluoro-β-D-ribofuranosyl)benzimidazole]",,,,,,,,0.5,> 100,,> 100,32,> 100,no antiproliferative effect,little or no cytoxicity
"CCOC[C@H]1O[C@@H](n2c(Cl)nc3cc(Cl)c(Cl)cc32)[C@H](OC(C)=O)[C@@H]1OC(C)=O [Compound 7b, 2,5,6-trichloro-1-(2′,3′-di-O-acetyl-5′-O-ethyl-β-D-ribofuranosyl)benzimidazole]",125 to 126,4.3,> 100,,60,33,,,,,,,,,
"COC[C@H]1O[C@@H](n2c(Cl)nc3cc(Cl)c(Cl)cc32)[C@H](OC(C)=O)[C@@H]1OC(C)=O [Compound 7a, 2,5,6-trichloro-1-(2′,3′-di-O-acetyl-5′-O-methyl-β-D-ribofuranosyl)benzimidazole]",150 to 151,2.8,> 100,,80,26,,,,,,,,,

# Further lines, with some results ahead:
melting point [°C],"IC50 (HCMV [1]; Human betaherpesvirus 5, HFF) [µM]",IC50 (HSV-1; [5]) [µM],IC50 (L1210 cells; Mus musculus) [µM],SMILES,IC50 at 2 population doubling times [2] [µM],IC50 [3] [µM],anti-HCMV activity (in words) (HCMV [1]; Table 1),IC50 (HCMV [1]) [µM],IC50 (HSV-1; [6]) [µM],activity relative to TCRB (HCMV [4]),IC50 (KB cells) [µM],IC50 (HFF cells) [µM],IC50 (L1210 cells) [µM],antiproliferative effect in L1210 cells (in words) (L1210 cells; statement in text on Table 2),cytotoxicity in growing KB cells (in words) (KB cells)
104 to 105,3,> 100,60,"COC[C@H]1O[C@@H](n2c(Cl)nc3cc(Cl)c(Cl)cc32)[C@H](O)[C@@H]1O [Compound 8a, 2,5,6-trichloro-1-(5′-O-methyl-β-D-ribofuranosyl)benzimidazole]",90,26,,,,,,,,,
88 to 90,4.6,> 100,59,"CCOC[C@H]1O[C@@H](n2c(Cl)nc3cc(Cl)c(Cl)cc32)[C@H](O)[C@@H]1O [Compound 8b, 2,5,6-trichloro-1-(5′-O-ethyl-β-D-ribofuranosyl)benzimidazole]",80,26,,,,,,,,,
70 to 72,14.2,> 100,> 100,"CCCCOC[C@H]1O[C@@H](n2c(Cl)nc3cc(Cl)c(Cl)cc32)[C@H](O)[C@@H]1O [Compound 8c, 2,5,6-trichloro-1-(5′-O-butyl-β-D-ribofuranosyl)benzimidazole]",60,32,,,,,,,,,
